Drawing on the OPERA property sets (Mansouri et al. 2018), this text covers logP for 101 compounds.

Where a SMILES comes first, the peptide text is derived from it.

What is called logP is the decadic logarithm of the partition coefficient of the neutral form, usually between octanol and water. The low end stands for lower lipophilicity, the high end for higher lipophilicity. Compound `COc1cc2ncnc(Nc3cccc(Br)c3)c2cc1OC` came in with a logP of 3.49. As for `CCC(C)C(NC(=O)C(N)CC(C)C)C(=O)O` (stereo not drawn) (H-Leu-Ile-OH; configuration not given here), the figure is -1.64.

Regarding `O=C1c2cc(Cl)ccc2OCN1CCO[N+](=O)[O-]`, the logP is 2.3.

As to `CCCNc1ncnc2c1ncn2C1OC(CO)C(O)C1O` (stereo unspecified), the logP came out at 0.54. As for `Clc1cc2c(c(Cl)c1Cl)Oc1c(Cl)ccc(Cl)c1O2`, the figure is 6.24. In turn, `CC(C)(C)NCC(O)COc1cccc2c1CCN(C=O)C2` (stereo unspecified) had a log partition coefficient (logP) of 1.3.

In turn, `Cc1cc(C)c2c(c1)COP(=O)(OCC1C=CC(n3cc(C)c(=O)[nH]c3=O)O1)O2` (stereo unspecified) came in with a logP of 1.18. Next, `CCOC(=O)C(C)(Cc1cccc2ccccc12)S(=O)(=O)c1ccc([N+](=O)[O-])cc1` (stereo unspecified): 4.4; `COc1ccc(F)cc1CNC1CCCNC1c1ccccc1` (stereo unspecified): 3.5; `COC(=O)C(C)NP(=O)(OCC1C=CC(n2cc(C)c(=O)[nH]c2=O)O1)Oc1ccc(I)cc1` (stereo unspecified): 1.93. For the compound `CCC(C)C(N)C(=O)N1CCCC1C(=O)NCC(=O)NC(C(=O)O)C(C)CC` (stereo unspecified) (H-IPGI-OH; configuration not given here), the logP was -1.69. In turn, `CCCc1c(C)nc2cccc(C)n2c1=O` came in with a logP of 2.22.

In the case of `O=C(O)Cc1ccc2c(c1)SCc1ccccc1C2=O`, the logP stood at 2.97. Compound `CN(c1nc2ccccc2s1)C1CCN(CC(O)COc2ccc(F)cc2)CC1` (stereo unspecified) yielded a lipophilicity (logP) of 4.61. Compound `CCOc1cc2ncnc(Nc3cccc(F)c3)c2cc1OCC` gave a logP of 3.71. As for `CC(C)C(=O)OCC(=O)C1(O)C(C)CC2C3CCC4=CC(=O)C=CC4(C)C3(F)C(O)CC21C` (stereo unspecified), the figure is 3.4; as for `CCOC(=O)Nc1ccc2cc3ccc4c(c3nc2c1)COC(=O)N4`, 2; as for `Cc1nc2c3c(c(C(=O)NC4CCC4)cn2c1C)CCC(c1ccccc1)O3` (stereo unspecified), 4.5. `CC(C)CCC(=O)CC1c2ccccc2C(=O)N1c1ccc2ccc(Cl)nc2n1` (stereo unspecified) had a log partition coefficient (logP) of 4.8. As for `COc1ccc(C2Cc3c(Cl)cccc3N(CCN(C)C)C(=O)C2OC(C)=O)cc1` (stereo unspecified), the figure is 4.4. `COC(=O)C(C)=CC1C(C(=O)OCc2cccc(Cc3ccccc3)c2)C1(C)C` (stereo unspecified) returned a logP of 6.41.

With `Cc1oc2nc3oc(=O)ccc3cc2c1C`, the logP was 1.97. As for `CCCc1ccccc1CNc1[nH]cnc2ncnc1-2`, the figure is 3.47; as for `O=C(NO)C(=Cc1ccccc1)C(=O)NCc1ccc(F)cc1`, 1.7; as for `CCCOc1ccccc1NC(=O)OCCN1CCCCC1`, 4.23.

The compound `CC(C)NC(=NC#N)NS(=O)(=O)c1cnccc1NC1CC1` had a logP of 0.01. Regarding `ON=Cc1nc(-c2cccs2)no1`, the log partition coefficient (logP) is 2.47. For `CCCON=C(C)c1cccc(Oc2nc(OC)cc(OC)n2)c1C(=O)OC`, the logP amounted to 3.59. Next, `CC(C)OC(=O)C(=Cc1ccccc1)S(=O)(=O)c1ccc(Cl)cc1`: 4.18; `c1ccc(CCNc2ncnc3nc[nH]c23)cc1`: 2.42.

The compound `COC(=O)C(C)=CC1C(C(=O)OCc2cccc(OCc3ccccc3)c2)C1(C)C` (stereo unspecified) gave a logP of 6.06. Next, `Cc1nc2ccccc2c(=O)n1CC(=O)N1CCOCC1`: 0.36; `N#Cc1cccc(Cn2cnc3ccccc32)c1`: 2.47. `O=CC(=C(Cl)C(=O)O)C(Cl)Cl` displayed a logP of 1.13. `CC(C)(O)C1CCC2(C)CCCC(O)C2C1` (stereo unspecified) gave a lipophilicity (logP) of 2.68. As for `Cc1nc2c3c(c(C(=O)N4CC(O)C4)cn2c1C)CCC(c1ccccc1)O3` (stereo unspecified), the figure is 3.1; as for `C/C(=C\CNc1ncnc2[nH]cnc12)CO`, 0.6.

With `CC(C)(C)[N+]([O-])=Cc1cc[n+]([O-])cc1`, the logP was -1.05.

In the case of `CC(C)NC(=NC#N)NS(=O)(=O)c1cnccc1NC1CCCCCCCCCCC1`, the logP was 4.51.

Compound `CCOP(=O)(OCC)C(C)(C)[N+]([O-])=Cc1cc[n+]([O-])cc1` registered a logP of -0.74. For `Cc1cccc(CNc2[nH]cnc3ncnc2-3)c1`, the logP was 2.62.

The compound `CCOc1ccc(NC(=O)OC(C)c2ccccc2)cc1OCC` (stereo unspecified) displayed a logP of 3.56.

In turn, `CCC(C)C(NC(=O)C(Cc1ccc(O)cc1)NC(=O)C(C)N)C(=O)O` (stereo unspecified) registered a lipophilicity (logP) of -2.04. Compound `CNC1=NS(=O)N=C1NCCSCc1ccc(CN(C)C)o1` (stereo unspecified) yielded a logP of 0.89. As for `CN(C)C1=NC(=O)N(c2ccc(Cl)cc2)C1`, the figure is 1.6; as for `Cc1c(O)c(=O)ccn1CCCOC(=O)c1ccccc1O`, 1.4. `COc1ccc(C2Cc3c(C)cccc3N(CCN(C)C)C(=O)C2OC(C)=O)cc1` (stereo unspecified) yielded a logP of 3.7. For the compound `N=C(N)Nc1nc(-c2ccc(N)cc2)cs1`, the logP is 1.08. `O=C1c2ccc(C(F)(F)F)cc2OCN1CCO[N+](=O)[O-]` displayed a logP of 3.01.

In the case of `O=C(NCC(F)(F)F)NS(=O)(=O)c1cnccc1NC1CCCCCC1`, the logP is 3.85. Next, `C=C1C(=O)OC2CC(C)C3C4CC(=O)C3(CC12)C1(C4)C(=O)OC2CC(C)C3C=CC(=O)C3(C)C(O)C21` (stereo unspecified): 1.66; `O=C(NC1CCCCCCC1)NS(=O)(=O)c1cnccc1NC1CCCCC1`: 4.97. Next, `NC(Cc1ccc(O)cc1)C(=O)NC(Cc1ccc(O)cc1)C(=O)O` (stereo not drawn) (H-Tyr-Tyr-OH; configuration not given here): -1.87; `CCN(CC)C(=O)[C@]1(c2ccccc2)C[C@@H]1CN`: 2.03.

As for `CC=C(C)C(=O)OC1CC(C)CCC1C(C)C` (stereo unspecified), the logP worked out at 6.2. On to `CCCCNC(=O)N1C(=O)N(C)CC1O` (stereo unspecified), for which the log partition coefficient (logP) came out at 1.38. As for `Cn1cc(-c2ccc(Cl)cc2)c(N2CCOCC2)c1`, the figure is 4.2; as for `CCCSc1cccc2nc(N)nc(N)c12`, 2.85. As for `Cc1nc2c3c(c(C(N)=O)cn2c1C)CCC(c1ccccc1)O3` (stereo unspecified), the figure is 3.5; as for `COCC(O)CN(C(C)=O)c1c(I)c(C(=O)NCC(O)CO)c(I)c(C(=O)NCC(O)CO)c1I` (stereo unspecified), -2.42.

With `CC(C)Nc1nc(=O)n(C(C)C)c(=O)n1C`, the logP was found to be 0.53.

With `CC12CC(Cl)(Cl)C(CC1(Cl)Cl)C2(CCl)C(Cl)Cl` (stereo unspecified), the logP stood at 5.49. As for `Nc1nc(N)c2c([N+](=O)[O-])cccc2n1`, the figure is 1.19; as for `O=C(O)CCCCON=C(c1ccccc1)c1cncnc1`, 2.65; as for `O=[N+]([O-])c1cccc(CNc2ncnc3nc[nH]c23)c1`, 2.03. As for `CC(=O)NCCC(=O)NCc1c(O)c(=O)cc(C)n1C`, the figure is -1.7; as for `CCC(C)C(NC(=O)C(N)CC(C)C)C(=O)NC(C(=O)O)C(C)O` (stereo not drawn) (H-Leu-Ile-Thr-OH; configuration not given here), -2.14; as for `CN1CCN(c2cc3c(cc2F)c(=O)c(C(=O)O)cn3C2CC2)CC1`, 0.15. As for `COc1ccc(C(C)=O)c(O)c1`, the figure is 1.98.

Take `COC(=O)c1ccc(Cl)cc1[N+](=O)[O-]`: the logP came out at 2.35. `COc1c2c(cc3c1-c1ccc(OC)c(=O)cc1C(NC(C)=O)CC3)OCO2` (stereo unspecified) showed a logP of 1.6. As for `CCCCCC(O)C=CC1C(O)CC(O)C1CC=CCCCC(=O)OCc1ccccc1` (stereo unspecified), the figure is 4.11. Next, `Nc1nnnn1-c1ccc(Br)cc1`: 1.63; `COc1ccc(CCNCC(O)COc2ccc(CCc3nc(Br)c[nH]3)cc2)cc1OC` (stereo unspecified): 3. In the case of `COc1cc(-n2c(C(F)(F)F)nn(C)c2=S)cc(OC)c1OC`, the logP is 2.04. Next, `NC(Cc1c[nH]c2ccccc12)C(=O)NC(Cc1c[nH]c2ccccc12)C(=O)NC(Cc1c[nH]c2ccccc12)C(=O)O` (stereo not drawn) (H-Trp-Trp-Trp-OH; configuration not given here): 0.66. Regarding `CCCCNCC(C)O` (stereo unspecified), the log partition coefficient (logP) worked out at 1.22. Next, `COC(=O)c1ccc(OP(=O)(NC(C)C(=O)OC)OCC2C=CC(n3cc(C)c(=O)[nH]c3=O)O2)cc1` (stereo unspecified): 1.01; `NC1=NCC(COc2cccc(C(F)(F)F)c2)O1` (stereo unspecified): 2.35.

Take `CS(=O)(=O)Nc1cccc(Cn2cnc3ccccc32)c1`: the logP was determined as 2.08. As for `CC(C)CC(NC(=O)C(N)C(C)C)C(=O)O` (stereo not drawn) (H-Val-Leu-OH; configuration not given here), the figure is -2.07. In the case of `CC(C)CC(NC(=O)C(C)NC(=O)C(C)NC(=O)C(C)NC(=O)C(N)Cc1ccccc1)C(=O)O` (stereo unspecified) (H-FAAAL-OH; configuration not given here), the logP was -2.23. On to `CCCN(CCc1cccs1)C1CCc2c(O)cccc2C1` (stereo unspecified), for which the logP amounted to 4.7. Next, `Cc1cccc(N2CCN(CC3CN=C(N)O3)CC2)c1` (stereo unspecified): 1.46; `CC1(C(Cl)Cl)C2C(Cl)C(Cl)C1(C(Cl)Cl)C(Cl)C2Cl` (stereo unspecified): 5.52. As for `CC(C)=CCCC(C)=CCCC(C)(C)O`, the figure is 4.54. Next, `CC(C)C[C@H](NC(=O)[C@@H](NC(=O)[C@@H](N)CC(C)C)C(C)C)C(=O)O` (H-Leu-Val-Leu-OH): -1.57. Compound `C#CCOc1noc2c1CNCC2` displayed a logP of 0.4. With `C[N+](C)([O-])C(c1ccccc1)c1ccccc1`, the logP turned out to be 0.82.

In turn, `O=c1nc(Nc2ccccc2)[nH]c2c1ncn2CCCCO` had a logP of 1.26. As for `C[N+](C)([O-])CCCN1c2ccccc2Sc2ccccc21`, the figure is 1.9; as for `CC(C)CC(=O)OCC(=O)C1(O)C(C)CC2C3CCC4=CC(=O)C=CC4(C)C3(F)C(O)CC21C` (stereo unspecified), 3.8; as for `CC(C)C(N)C(=O)NC(Cc1ccc(O)cc1)C(=O)O` (stereo not drawn) (H-Val-Tyr-OH; configuration not given here), -2.52. For `CNc1ncnc2[nH]cnc12`, the logP is 0.43.

The compound `COc1cc(OC)c(C=[N+]([O-])C(C)(C)C)c(OC)c1` had a logP of 1.2. Next, `O=c1cc(-c2ccc(Cl)cc2Cl)oc2ccccc12`: 4.13; `CCCCCNc1ncnc2c1ncn2C1OC(CO)C(O)C1O` (stereo unspecified): 1.67; `Cc1oc2cc3oc(=O)cc(C)c3cc2c1C`: 3.22.

`Cc1ccc(CO)c(C=NNC(=O)c2ccncc2)c1O` came in with a logP of 2.16.

In turn, `O=C(Nc1ncc([N+](=O)[O-])s1)c1ccc(Br)cc1` gave a logP of 3.58. As for `O=C1NC(Cc2c[nH]c3ccccc23)C(=O)NC1Cc1c[nH]c2ccccc12` (stereo unspecified), the figure is 2.04.
